The values below come from US12240862B2, “Inhibitors of peptidylarginine deiminases” (Gilead Sciences, Inc., priority 2020, dated 2025).

The IC50 is the concentration that gives 50% inhibition.

In the assay the target is T1, human PAD4 (Homo sapiens, UniProt Q9UM07).
T1 construct: human PAD4 (NM_012387), A2P663, was PCR amplified; His-SUMO (N, cleaved yes); made in house; host or cells: E. coli BL21(DE3)
T1 sequence (Q9UM07 2-663): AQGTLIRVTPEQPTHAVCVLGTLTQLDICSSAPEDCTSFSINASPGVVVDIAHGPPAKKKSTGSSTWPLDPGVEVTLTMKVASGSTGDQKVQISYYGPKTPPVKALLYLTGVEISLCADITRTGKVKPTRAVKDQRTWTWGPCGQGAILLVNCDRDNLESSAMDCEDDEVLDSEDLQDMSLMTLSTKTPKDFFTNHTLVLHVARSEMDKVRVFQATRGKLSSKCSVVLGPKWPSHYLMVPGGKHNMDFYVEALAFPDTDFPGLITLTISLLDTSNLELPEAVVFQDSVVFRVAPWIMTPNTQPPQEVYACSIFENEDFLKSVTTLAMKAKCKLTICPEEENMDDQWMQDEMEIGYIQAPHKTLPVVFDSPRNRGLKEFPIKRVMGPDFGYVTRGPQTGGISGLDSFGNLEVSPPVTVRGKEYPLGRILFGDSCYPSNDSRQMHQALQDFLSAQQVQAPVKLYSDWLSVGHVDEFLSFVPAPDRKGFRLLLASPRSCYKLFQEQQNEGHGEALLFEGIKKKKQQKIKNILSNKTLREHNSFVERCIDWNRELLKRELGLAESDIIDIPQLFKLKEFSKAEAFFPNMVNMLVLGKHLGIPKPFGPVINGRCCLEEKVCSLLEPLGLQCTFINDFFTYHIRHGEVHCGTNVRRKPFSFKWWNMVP
The assay is described as follows: In vitro PAD4 BAEE biochemical assay. To be noted: human PAD4, BAEE substrate; 5 nM PAD4, 2 mM calcium chloride, 3 mM BAEE; geometric mean of multiple experiments. In a few lines:
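Tag-free recombinant hPAD4 (5 nM), 2 mM CaCl2, 3 mM BAEE, 50 mM MOPS pH 7.6, 2 mM DTT; 30 min compound preincubation, 2 h reaction, all 25 °C. EDTA quench; ammonia read via o-phthalaldehyde amine coupling, 1 h.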
Consider “[(1~{R},2~{R},4~{S})-2- amino-7- azabicyclo[2.2.1]heptane-7- carbonyl]- 5-methoxy-3-methylimidazo [1,2-a]pyridin-2-yl]-1- (cyclopropylmethyl)pyrrolo [2,3-b]pyridin-6-yl]ethyl]-3- hydroxybicyclo[1.1.1] pentane-1-carboxamide [Example 87]”, for which the IC50 is 0.0286 µM. In the case of `CCc1c(-c2cc3ccc(N(C(F)F)S(C)(=O)=O)nc3n2CC2CC2)nc2cc(C(=O)N3C[C@H](N)CC[C@@H]3C)ccn12` [Example 406, ~{N}-[2-[7-[(2~{S},5~{R})-5-amino-2-methylpiperidine-1-carbonyl]-3-ethylimidazo [1,2-a]pyridin-2-yl]-1-(cyclopropylmethyl)pyrrolo [2,3-b]pyridin-6-yl]-~{N}-(difluoromethyl) methanesulfonamide] it was 0.194 µM; in that of `COc1cc(C(=O)N2[C@H]3CC[C@@H]2[C@H](N)C3)cc2nc(-c3cc4ccc([C@@H](C)NC(=O)N(C)c5ccccc5)nc4n3CC3CC3)c(C)n12` [Example 242, 3-[(1~{R})-1-[2-[7-[(1~{R},2~{R},4~{S})-2-amino-7-azabicyclo[2.2.1]heptane-7-carbonyl]-5-methoxy-3-methylimidazo [1,2-a]pyridin-2-yl]-1-(cyclopropylmethyl)pyrrolo [2,3-b]pyridin-6-yl]ethyl]-1-methyl-1-phenylurea], 0.238 µM; in that of `COc1cc(C(=O)N2[C@H]3CC[C@@H]2[C@H](N)C3)cc2nc(-c3cc4ccc([C@@H](C)NC(=O)C56CC(CO5)C6)nc4n3CC3CC3)c(C)n12` [Example 132, ~{N}-[(1~{R})-1-[2-[7-[(1~{R},2~{R},4~{S})-2-amino-7-azabicyclo[2.2.1]heptane-7-carbonyl]-5-methoxy-3-methylimidazo [1,2-a]pyridin-2-yl]-1-(cyclopropylmethyl)pyrrolo [2,3-b]pyridin-6-yl]ethyl]-2-oxabicyclo[2.1.1]hexane-1-carboxamide], 0.698 µM. In the case of `COc1cc(C(=O)N2[C@H]3CC[C@@H]2[C@H](N)C3)cc2nc(-c3cc4ccc(N5CCCN(C)S5(=O)=O)nc4n3CC3CC3)c(C)n12` [Example 455, [(1~{R},2~{R},4~{S})-2-amino-7-azabicyclo [2.2.1]heptan-7-yl]-[2-[1-(cyclopropylmethyl)-6-(6-methyl-1,1-dioxo-1,2,6-thiadiazinan-2-yl)pyrrolo[2,3-b]pyridin-2-yl]-5-methoxy-3-methylimidazo[1,2-a]pyridin-7-yl]methanone] it was 0.113 µM; in that of `CC(C)c1c(-c2cc3ccc(N(C(F)F)S(C)(=O)=O)nc3n2CC2CC2)nc2cc(C(=O)N3[C@@H]4CC[C@@H](N)[C@H]3CC4)ccn12` [Example 434], 3.41 µM; in that of `COc1cc(C(=O)N2C[C@H]3CC[C@@H]2[C@@H]3N)cc2nc(-c3cc4ccc(N(C)S(C)(=O)=O)nc4n3C)c(C)n12` [Example 493, N-[2-[7-[(1R,4R, 7R)-7-amino-2-azabicyclo [2.2.1]heptane-2-carbonyl]-5-methoxy-3-methyl-imidazo[1,2-a]pyridin-2-yl]-1-methyl-pyrrolo[2,3-b]pyridin-6-yl]-N-methyl-methanesulfonamide], 2.5 µM. On to `COc1cc(C(=O)N[C@H]2CNCC[C@@H]2OC)cc2nc(-c3cc4ccc(N(C(F)F)S(C)(=O)=O)nc4n3CC3CC3)c(C)n12` [Example 285, 2-[1-(cyclopropylmethyl)-6-[difluoromethyl (methylsulfonyl)amino]pyrrolo[2,3-b]pyridin-2-yl]-5-methoxy-~ {N}-[(3~{S},4~{S})-4-methoxypiperidin-3-yl]-3-methylimidazo[1,2-a] pyridine-7-carboxamide], for which the IC50 was determined as 14 µM.
